≈ marks a conversion by molar mass, not a printed value. Read-outs that look alike come from different tables or passages of the source.
Key:
[1] = tested on: MRSA; experiment: Antibacterial susceptibility testing, MRSA; assay type: cell-based, methicillin resistant Staphylococcus aureus; conditions: for MRS IC50 / MRS MFC / MRS MIC: Table 1
In short: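 MRSA, sourced from the American Type Culture Collection, was tested for susceptibility with a modified National Committee for Clinical Laboratory Standards method. DMSO sample solutions were serially diluted in saline and placed in duplicate in 96 well microplates. Broth-diluted bacterial suspensions, standardized to 0.5 McFarland, brought each well to 200 μL, with the highest test concentration at 20 μg/mL.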

[2] = tested on: Vero Cells; experiment: Cytotoxicity, Vero cells; assay type: cell-based
[3] = tested on: Candida albicans ATTC 90028; experiment: Antifungal susceptibility testing, Candida albicans; assay type: cell-based
In short: (§1)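 Modified NCCLS broth microdilution, samples serially diluted from 20 μg/mL top concentration, inocula per 0.5 McFarland (C. albicans in SDB or RPMI 1640; C. neoformans in SDB; A. fumigatus in YM broth or RPMI-1640 + 5% Alamar Blue). IC50 from percent growth versus concentration; MIC read visually as lowest concentration without detectable growth.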

[4] = tested on: Cryptococcus neoformans ATCC 90113; experiment: Antifungal susceptibility testing, Cryptococcus neoformans; assay type: cell-based
In short: as §1

[5] = tested on: Aspergillus fumigatus ATCC 90906; experiment: Antifungal susceptibility testing, Aspergillus fumigatus; assay type: cell-based
In short: as §1

SMILES | A fu MFC [5] [µg/mL] | A fu MIC [5] [µg/mL] | TC50 Vero Cells ([2]; Table 2) [µg/mL] | Ca IC50 ([3]; Table 2) [µg/mL] | Ca MFC ([3]; Table 2) [µg/mL] | Ca MIC ([3]; Table 2) [µg/mL] | Cn IC50 ([4]; Table 2) [µg/mL] | Cn MFC ([4]; Table 2) [µg/mL] | Cn MIC ([4]; Table 2) [µg/mL] | A fu IC50 ([5]; Table 2, Aspergillus fumigatus) [µg/mL] | Ca IC50 ([3]; Table 1) [µg/mL] | Ca MFC ([3]; Table 1) | Ca MIC ([3]; Table 1) [µg/mL] | Cn IC50 ([4]; Table 1) [µg/mL] | Cn MFC ([4]; Table 1) [µg/mL] | Cn MIC ([4]; Table 1) [µg/mL] | A fu IC50 ([5]; Table 1, Aspergillus fumigatus) [µg/mL] | A fu MFC ([5]; Table 1, Aspergillus fumigatus) | A fu MIC ([5]; Table 1, Aspergillus fumigatus) [µg/mL] | further results
C[n+]1cc2c(c3ccccc3n2CCCCCC2CCCCC2)c2ccccc21.[I-] [JRE-3-100-1] | 10 | 5.0 |  |  |  |  |  |  |  |  |  |  |  |  |  |  |  |  |  | MRSA IC50 ([1]; Table 3): 0.70 µg/mL; MRSA MFC ([1]; Table 3): 1.3 µg/mL; MRSA MIC ([1]; Table 3): 1.3 µg/mL; TC50 Vero Cells ([2]; Table 3): >10 µg/mL; Ca IC50 ([3]; Table 3): 0.80 µg/mL; Ca MFC ([3]; Table 3): 10 µg/mL; Ca MIC ([3]; Table 3): 2.5 µg/mL; Cn IC50 ([4]; Table 3): 1.5 µg/mL; Cn MFC ([4]; Table 3): 5.0 µg/mL; Cn MIC ([4]; Table 3): 2.5 µg/mL; A fu IC50 ([5]; Table 3, Aspergillus fumigatus): 3.5 µg/mL
C[n+]1cc(N(CCCCCC2CCCCC2)c2cccc(C(F)(F)F)c2)cc2ccccc21.[I-] [JRE-3-61-1] | 10 | 2.5 | >10 | 1.0 | 2.5 | 2.5 | 0.85 | 2.5 | 1.3 | 1.5 |  |  |  |  |  |  |  |  |  | MRSA IC50 ([1]; Table 2): 0.45 µg/mL; MRSA MFC ([1]; Table 2): 1.3 µg/mL; MRSA MIC ([1]; Table 2): 0.63 µg/mL
C[n+]1cc(N(CCCCCC2CCCCC2)c2cccc(Cl)c2)cc2ccccc21.[I-] [JRE-4-3-1] | 10 | 2.5 | >10 | 0.90 | 10 | 2.5 | 0.85 | 5.0 | 1.3 | 1.0 |  |  |  |  |  |  |  |  |  | MRSA IC50 ([1]; Table 2): 0.80 µg/mL; MRSA MFC ([1]; Table 2): 2.5 µg/mL; MRSA MIC ([1]; Table 2): 1.3 µg/mL
C[n+]1cc(N(CCCCCC2CCCCC2)c2ccc3ccccc3c2)cc2ccccc21 [EVK-III-001] | 3.1 | 1.6 | 9.0 |  |  |  |  |  |  |  |  |  |  |  |  |  |  |  |  | IC50 ([1]; Staphylococcus aureus, Table 2, read-out: MRSA IC50): 0.3 µg/mL; MIC ([1]; Staphylococcus aureus, Table 2, read-out: MRSA MIC): 0.78 µg/mL; IC50 ([3]; ATTC90028, Table 2, read-out: Ca IC50): 0.2 µg/mL; MFC ([3]; ATTC90028, Table 2, read-out: Ca MFC): 3.1 µg/mL; MIC ([3]; ATTC90028, Table 2, read-out: Ca MIC): 0.39 µg/mL; IC50 ([4]; ATCC90113, Table 2, read-out: Cn IC50): 0.35 µg/mL; MFC ([4]; ATCC90113, Table 2, read-out: Cn MFC): 1.6 µg/mL; MIC ([4]; ATCC90113, Table 2, read-out: Cn MIC): 0.78 µg/mL; IC50 ([5]; ATCC90906, Table 2, Aspergillus fumigatus, read-out: A fu IC50): 0.95 µg/mL
FC(F)(F)c1ccc(Sc2cc3ccccc3[n+](CCCCCc3ccccc3)c2)cc1.[I-] [XYZ-III-66] |  |  |  |  |  |  |  |  |  |  | 5.5 | — ((-) = >20 μg/mL) | 10 | 2.0 | 10 | 5.0 | 3.0 | — ((-) = >20 μg/mL) | 5.0 | TC50 Vero Cells ([2]; Table 1): NC (NC = Not toxic at 10 μg/mL)
FC(F)(F)c1ccccc1Sc1cc2ccccc2[n+](CCCCCc2ccccc2)c1.[I-] [XYZ-IV-25] |  |  |  |  |  |  |  |  |  |  | 0.4 | 2.5 µg/mL | 1.3 | 0.06 | 0.63 | 0.16 | 0.03 | 10 µg/mL | 0.08 | MRS IC50 [1]: 0.05 µg/mL; MRS MFC [1]: 2.5 µg/mL; MRS MIC [1]: 0.16 µg/mL
C[C@@H]1[C@H](O)[C@@H](C)/C=C/C=C/C=C/C=C/C=C/C=C/C=C/[C@H](O[C@@H]2O[C@H](C)[C@@H](O)[C@H](N)[C@@H]2O)C[C@@H]2O[C@](O)(C[C@@H](O)C[C@@H](O)[C@H](O)CC[C@@H](O)C[C@@H](O)CC(=O)O[C@H]1C)C[C@H](O)[C@H]2C(=O)O [Amph B, Amphotericin B, reference compound] | 2.5 | 2.5 | 6.5 (≈ 7.03 µM) | 0.25 | 1.3 | 0.63 | 0.85 | 2.5 | 2.5 | 0.90 | 0.25 | 1.3 µg/mL | 0.63 | 0.85 | 2.5 | 2.5 | 0.90 |  |  | TC50 Vero Cells ([2]; Table 1): 6.5 µg/mL (≈ 7.03 µM); TC50 Vero Cells ([2]; Table 3): 6.5 µg/mL (≈ 7.03 µM); Ca IC50 ([3]; Table 3): 0.25 µg/mL; Ca MFC ([3]; Table 3): 1.3 µg/mL; Ca MIC ([3]; Table 3): 0.63 µg/mL; Cn IC50 ([4]; Table 3): 0.85 µg/mL; Cn MFC ([4]; Table 3): 2.5 µg/mL; Cn MIC ([4]; Table 3): 2.5 µg/mL; A fu IC50 ([5]; Table 3, Aspergillus fumigatus): 0.90 µg/mL
Fc1cccc(Sc2cc3ccccc3[n+](CCCCCc3ccccc3)c2)c1.[I-] [XYZ-IV-21] |  |  |  |  |  |  |  |  |  |  | 3.0 | 20 µg/mL | 10 | 0.40 | 2.5 | 0.63 | 0.10 | — ((-) = >20 μg/mL) | 0.16 | MRS IC50 [1]: 0.20 µg/mL; MRS MFC [1]: 20 µg/mL; MRS MIC [1]: 0.63 µg/mL

From patent US8288410B2, “3-substituted quinolinium and 7H-indolo[2,3-c]quinolinium salts as new antiinfectives” (Florida Agricultural and Mechanical University, priority 2008, dated 2012)
